In patent publication US9018388B2, “Pesticidal compositions and processes related thereto” (Dow AgroSciences LLC, priority 2012, dated 2015):
Read-outs that look alike come from different tables or passages of the source.

What was measured:
[1] = test system: Beet Armyworm (BAW) (Spodoptera exigua); assay: Bioassay on beet armyworm (BAW), 128-well diet tray assay; assay type: in vivo; conditions: Spodoptera exigua, read-out: % Mortality BAW 50 μg/cm^2
Experimental: (§1) Bioassays on Beet Armyworm (“BAW”) and Corn Earworm (“CEW”)
(§2) Certain molecules disclosed in this document were tested against BAW and CEW using procedures described in the following examples. In the reporting of the results, the “BAW & CEW Rating Table” was used (See Table Section).
Bioassays on BAW (Spodoptera exigua)
Bioassays on BAW were conducted using a 128-well diet tray assay. One to five second instar BAW larvae were placed in each well (3 mL) of the diet tray that had been previously filled with 1 mL of artificial diet to which 50 μg/cm^2 of the test compound (dissolved in 50 μL of 90:10 acetone-water mixture) had been applied (to each of eight wells) and then allowed to dry. Trays were covered with a clear self-adhesive cover and held at 25° C., 14:10 light-dark for five to seven days. Percent mortality was recorded for the larvae in each well; activity in the eight wells was then averaged. The results are indicated in the table entitled “Table 5: Biological Results” (See Table Section).

[2] = test system: Corn Earworm (CEW) (Helicoverpa zea); assay: Bioassay on corn earworm (CEW), 128-well diet tray assay; assay type: in vivo; conditions: Helicoverpa zea, read-out: % Mortality CEW 50 μg/cm^2
Experimental: as §1, §2
Bioassays on CEW (Helicoverpa zea)
Bioassays on CEW were conducted using a 128-well diet tray assay. One to five second instar CEW larvae were placed in each well (3 mL) of the diet tray that had been previously filled with 1 mL of artificial diet to which 50 μg/cm^2 of the test compound (dissolved in 50 μL of 90:10 acetone-water mixture) had been applied (to each of eight wells) and then allowed to dry. Trays were covered with a clear self-adhesive cover and held at 25° C., 14:10 light-dark for five to seven days. Percent mortality was recorded for the larvae in each well; activity in the eight wells was then averaged. The results are indicated in the table entitled “Table 5: Biological Results” (See Table Section).

SMILES	pest or weed control at 50 µg/cm2, 50 µg/cm2 ([1]; Beet armyworm, 50 μg/cm^2) [%]	pest or weed control at 50 µg/cm2, 50 µg/cm2 ([2]; Corn earworm, 50 μg/cm^2) [%]	pest or weed control at 50 µg/cm2, 50 µg/cm2 [1] [%]	pest or weed control at 50 µg/cm2, 50 µg/cm2 [2] [%]
CC(C)c1ccccc1N1/C(=N/N=C/c2ccc(-c3ncn(-c4ccc(OC(F)(F)F)cc4)n3)cc2)SCC1C (racemic) [Compound 155C]	50 to 100	50 to 100	–	–
COc1cc(C)c(N2C(=O)CSC2=NN=Cc2ccc(-c3ncn(-c4ccc(OC(F)(F)F)cc4)n3)cc2)c(C)c1 (stereo in doubt) [Compound 69C, (Z)-3-(4-methoxy-2,6-dimethylphenyl)-2-((E)-(4-(1-(4-(trifluoromethoxy)phenyl)-1H-1,2,4-triazol-3-yl)benzylidene)hydrazono)thiazolidin-4-one]	50 to 100	50 to 100	–	–
CC1CSC(=NN=Cc2ccc(-c3ncn(-c4ccc(OC(F)(F)F)cc4)n3)cc2)N(c2ccccc2C(C)C)C1 (stereo in doubt) [Compound 178C, (Z)-3-(2-isopropylphenyl)-5-methyl-2-((E)-(4-(1-(4-(trifluoromethoxy)phenyl)-1H-1,2,4-triazol-3-yl)benzylidene)hydrazono)-1,3-thiazinane]	50 to 100	50 to 100	–	–
CS/C(=N\c1ccc(N(C)C)cc1)N/N=C/c1ccc(-c2ncn(-c3ccc(OC(F)(F)F)cc3)n2)cc1 [Compound 1C, N-(4-dimethylaminophenyl)-S-methyl-2-{4-[1-(4-trifluoromethoxyphenyl)-1H-[1,2,4]-triazol-3-yl]-benzylidene}-hydrazine-carbothioamide]	50 to 100	50 to 100	–	–
CCS/C(=N\c1c(Cl)cccc1Cl)N/N=C/c1ccc(-c2ncn(-c3ccc(OC(F)(F)F)cc3)n2)cc1 [Compound 2C]	50 to 100	50 to 100	–	–
CCCS/C(=N\c1c(Cl)cccc1Cl)N/N=C/c1ccc(-c2ncn(-c3ccc(OC(F)(F)F)cc3)n2)cc1 [Compound 3C]	50 to 100	50 to 100	–	–
Cc1cccc(C)c1/N=C(/N/N=C/c1ccc(-c2ncn(-c3ccc(OC(F)(F)F)cc3)n2)cc1)SCc1ccc(C(=O)O)cc1 [Compound 6C]	50 to 100	50 to 100	–	–
Cc1cccc(C)c1/N=C(/N/N=C/c1ccc(-c2ncn(-c3ccc(OC(F)(F)F)cc3)n2)cc1)SCc1ccc(F)cc1F [Compound 7C]	–	50 to 100	–	–
Cc1cccc(C)c1/N=C(/N/N=C/c1ccc(-c2ncn(-c3ccc(OC(F)(F)F)cc3)n2)cc1)SCC#C[Si](C)(C)C [Compound 9C]	–	–	50 to 100	50 to 100
Cc1cccc(C)c1/N=C(/N/N=C/c1ccc(-c2ncn(-c3ccc(OC(F)(F)F)cc3)n2)cc1)SCc1ccccc1 [Compound 10C]	50 to 100	50 to 100	–	–
Cc1cccc(C)c1/N=C(/N/N=C/c1ccc(-c2ncn(-c3ccc(OC(F)(F)F)cc3)n2)cc1)SCc1ccccc1F [Compound 11C]	50 to 100	50 to 100	–	–
Cc1cccc(C)c1/N=C(/N/N=C/c1ccc(-c2ncn(-c3ccc(OC(F)(F)F)cc3)n2)cc1)SCc1ccc(C(F)(F)F)o1 [Compound 16C]	50 to 100	50 to 100	–	–
Cc1cccc(C)c1/N=C(/N/N=C/c1ccc(-c2ncn(-c3ccc(OC(F)(F)F)cc3)n2)cc1)SCc1c(-c2ccccc2)noc1C [Compound 20C]	50 to 100	50 to 100	–	–
Cc1cccc(C)c1/N=C(/N/N=C/c1ccc(-c2ncn(-c3ccc(OC(F)(F)F)cc3)n2)cc1)SCOC(=O)CNC(=O)OCc1ccccc1 [Compound 23C]	50 to 100	50 to 100	–	–
Cc1cccc(C)c1/N=C(/N/N=C/c1ccc(-c2ncn(-c3ccc(OC(F)(F)F)cc3)n2)cc1)SCOC(=O)C(C)C [Compound 25C]	50 to 100	50 to 100	–	–
Cc1cccc(C)c1/N=C(/N/N=C/c1ccc(-c2ncn(-c3ccc(OC(F)(F)F)cc3)n2)cc1)SCOC(=O)C(C)(C)C [Compound 36C]	50 to 100	50 to 100	–	–

SMILES	pest or weed control at 50 µg/cm2, 50 µg/cm2 ([1]; Beet armyworm, 50 μg/cm^2) [%]	pest or weed control at 50 µg/cm2, 50 µg/cm2 ([2]; Corn earworm, 50 μg/cm^2) [%]	pest or weed control at 50 µg/cm2, 50 µg/cm2 [1] [%]	pest or weed control at 50 µg/cm2, 50 µg/cm2 [2] [%]
COc1cc(C)c(/N=C(/N/N=C/c2ccc(-c3ncn(-c4ccc(OC(F)(F)C(F)(F)F)cc4)n3)cc2)SCOC(=O)C(C)C)c(C)c1 [Compound 37C]	50 to 100	50 to 100	–	–
COc1cc(C)c(/N=C(/N/N=C/c2ccc(-c3ncn(-c4ccc(OC(F)(F)F)cc4)n3)cc2)SCOC(=O)C(C)OCC(F)(F)F)c(C)c1 (stereo not drawn) [Compound 38C]	50 to 100	50 to 100	–	–
COCOCC(C)C(=O)OCS/C(=N\c1c(C)cccc1C)N/N=C/c1ccc(-c2ncn(-c3ccc(OC(F)(F)F)cc3)n2)cc1 (stereo not drawn) [Compound 41C]	50 to 100	50 to 100	–	–
COCOCC(C)C(=O)OCS/C(=N\c1c(C)cc(OC)cc1C)N/N=C/c1ccc(-c2ncn(-c3ccc(OC(F)(F)F)cc3)n2)cc1 (stereo not drawn) [Compound 42C]	50 to 100	50 to 100	–	–
COc1cc(C)c(/N=C(/N/N=C/c2ccc(-c3ncn(-c4ccc(OC(F)(F)F)cc4)n3)cc2)SCOC(=O)C2CCCO2)c(C)c1 (stereo not drawn) [Compound 44C]	50 to 100	50 to 100	–	–
COc1cc(C)c(/N=C(\N/N=C/c2ccc(-c3ncn(-c4ccc(C(F)(F)F)cc4)n3)cc2)SCOC(=O)CNC(=O)OCc2ccccc2)c(C)c1 [Compound 45C]	50 to 100	50 to 100	–	–
COc1cc(C)c(/N=C(\N/N=C/c2ccc(-c3ncn(-c4ccc(C(F)(F)F)cc4)n3)cc2)SCOC(=O)C(C)C)c(C)c1 [Compound 46C]	50 to 100	50 to 100	–	–
COc1cc(C)c(/N=C(/N/N=C/c2ccc(-c3ncn(-c4ccc(OC(F)(F)F)cc4)n3)cc2)SCC(=O)O)c(C)c1 [Compound 48C]	50 to 100	50 to 100	–	–
COc1ccc(/N=C(/N/N=C/c2ccc(-c3ncn(-c4ccc(OC(F)(F)C(F)(F)F)cc4)n3)cc2)SCC(=O)O)c(C)c1 [Compound 50C]	50 to 100	50 to 100	–	–
CC(/N=C(/N/N=C/c1ccc(-c2ncn(-c3ccc(OC(F)(F)F)cc3)n2)cc1)SCC(=O)O)c1ccccc1 (stereo not drawn) [Compound 54C]	50 to 100	50 to 100	–	–
Cc1cccc(C)c1/N=C(/N/N=C/c1ccc(-c2ncn(-c3ccc(OC(F)(F)F)cc3)n2)cc1)SCC(=O)NCC(C)C [Compound 55C]	50 to 100	50 to 100	–	–
Cc1cccc(C)c1/N=C(/N/N=C/c1ccc(-c2ncn(-c3ccc(OC(F)(F)F)cc3)n2)cc1)SCC(=O)NC[C@@H]1CCCN(C(=O)OC(C)(C)C)C1 [Compound 56C, (S)-tert-butyl 3-((2-((Z)-(2,6-dimethylphenylimino)-((E)-2-(4-(1-(4-(trifluoromethoxy)phenyl)-1H-1,2,4-triazol-3-yl)benzylidene)hydrazinyl)-methylthio)acetamido)methyl)piperidine-1-carboxylate]	50 to 100	50 to 100	–	–
COc1cc(C)c(/N=C(/N/N=C/c2ccc(-c3ncn(-c4ccc(OC(F)(F)F)cc4)n3)cc2)SCC(=O)NCCCNC(=O)OC(C)(C)C)c(C)c1 [Compound 60C]	50 to 100	50 to 100	–	–
CCOc1cccc(OCC)c1N1C(=O)CS/C1=N\N=C\c1ccc(-c2ncn(-c3ccc(OC(F)(F)F)cc3)n2)cc1 [Compound 98C]	50 to 100	–	–	–
COc1ccc(N2C(=O)CS/C2=N\N=C\c2ccc(-c3ncn(-c4ccc(OC(F)(F)F)cc4)n3)cc2)cc1 [Compound 115C]	0 to 50	–	–	–
FC(F)(F)Oc1ccc(-n2cnc(-c3ccc(/C=N/N=C4\SCCN4c4ccccc4OC(F)(F)F)cc3)n2)cc1 [Compound 153C]	–	50 to 100	–	–
